These results are taken from publication PMC6230509 (Neuropharmacology, 2018).

One assay deals with 5-HT2A (Homo sapiens, UniProt P28223). The assay is described as follows: NIMH PDSP radioligand competition binding, 5-HT2A. On the technique in general: In a radioligand displacement assay an active substance lowers the binding of a labelled ligand.
The target of a further assay is 5-HT5A (Homo sapiens, UniProt P47898). The assay is described as follows: NIMH PDSP radioligand competition binding, 5-HT5A.
The target of a further assay is δ-opioid receptor (DOR) (Homo sapiens, UniProt P41143). The assay is described as follows: NIMH PDSP radioligand competition binding, DOR.
The next assay addresses T1, D4 (Homo sapiens, UniProt P21917).
T1 sequence (P21917 1-419): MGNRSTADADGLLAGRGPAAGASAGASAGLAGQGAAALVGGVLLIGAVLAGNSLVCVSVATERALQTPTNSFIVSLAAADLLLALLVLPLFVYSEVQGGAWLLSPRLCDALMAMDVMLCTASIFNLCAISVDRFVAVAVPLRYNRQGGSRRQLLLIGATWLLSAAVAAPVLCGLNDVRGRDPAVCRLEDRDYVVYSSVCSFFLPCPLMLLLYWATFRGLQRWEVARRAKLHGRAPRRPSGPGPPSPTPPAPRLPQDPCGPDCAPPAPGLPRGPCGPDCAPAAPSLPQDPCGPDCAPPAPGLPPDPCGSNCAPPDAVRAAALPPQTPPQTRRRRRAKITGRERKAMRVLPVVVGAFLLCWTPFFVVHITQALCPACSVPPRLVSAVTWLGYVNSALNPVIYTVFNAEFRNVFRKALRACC
As to the kind of experiment: NIMH PDSP radioligand competition binding, D4.

Another assay deals with T2, α1A (Homo sapiens, UniProt P35348).
T2 sequence (P35348 1-466): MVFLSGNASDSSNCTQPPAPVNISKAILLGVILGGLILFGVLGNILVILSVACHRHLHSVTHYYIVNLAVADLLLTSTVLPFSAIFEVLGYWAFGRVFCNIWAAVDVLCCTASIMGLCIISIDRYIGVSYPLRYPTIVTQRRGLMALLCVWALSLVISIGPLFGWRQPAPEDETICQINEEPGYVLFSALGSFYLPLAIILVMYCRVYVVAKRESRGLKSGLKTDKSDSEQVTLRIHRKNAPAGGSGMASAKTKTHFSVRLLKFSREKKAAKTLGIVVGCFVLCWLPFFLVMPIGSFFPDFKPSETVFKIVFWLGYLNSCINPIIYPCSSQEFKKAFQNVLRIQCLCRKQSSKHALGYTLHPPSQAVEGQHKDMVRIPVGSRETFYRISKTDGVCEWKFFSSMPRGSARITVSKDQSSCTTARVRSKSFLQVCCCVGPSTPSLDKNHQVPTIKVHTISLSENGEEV
The assay is described as follows: NIMH PDSP radioligand competition binding, α1A.

For another assay, the target named is H1 (Homo sapiens, UniProt P35367). As to the kind of experiment: NIMH PDSP radioligand competition binding, H1.
Assay [1] addresses peripheral benzodiazepine receptor (PBR) (Rattus norvegicus, UniProt P16257). As to the kind of experiment: NIMH PDSP radioligand competition binding, PBR.
The target in a further assay is 5-HT1E (Homo sapiens, UniProt P28566). The assay is described as follows: NIMH PDSP radioligand competition binding, 5-HT1E.
Another assay addresses T3, α2B (Homo sapiens, UniProt P18089).
T3 sequence (P18089 1-450): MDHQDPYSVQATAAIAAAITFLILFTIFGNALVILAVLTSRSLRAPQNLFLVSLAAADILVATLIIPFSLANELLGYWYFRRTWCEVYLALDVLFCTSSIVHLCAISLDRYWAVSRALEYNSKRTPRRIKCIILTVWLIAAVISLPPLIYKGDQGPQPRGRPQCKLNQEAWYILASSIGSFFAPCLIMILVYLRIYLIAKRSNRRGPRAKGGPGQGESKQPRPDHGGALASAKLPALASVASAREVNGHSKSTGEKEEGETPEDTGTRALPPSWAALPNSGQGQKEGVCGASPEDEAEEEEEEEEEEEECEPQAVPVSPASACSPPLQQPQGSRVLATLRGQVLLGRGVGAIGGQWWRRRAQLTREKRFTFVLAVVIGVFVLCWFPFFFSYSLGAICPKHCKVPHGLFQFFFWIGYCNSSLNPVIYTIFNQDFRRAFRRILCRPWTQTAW
As to the kind of experiment: NIMH PDSP radioligand competition binding, α2B.

A further assay addresses H2 (Homo sapiens, UniProt P25021). The assay is described as follows: NIMH PDSP radioligand competition binding, H2.
The target of the next assay is T4, 5-HT1A (Homo sapiens, UniProt P08908).
T4 sequence (P08908 1-422): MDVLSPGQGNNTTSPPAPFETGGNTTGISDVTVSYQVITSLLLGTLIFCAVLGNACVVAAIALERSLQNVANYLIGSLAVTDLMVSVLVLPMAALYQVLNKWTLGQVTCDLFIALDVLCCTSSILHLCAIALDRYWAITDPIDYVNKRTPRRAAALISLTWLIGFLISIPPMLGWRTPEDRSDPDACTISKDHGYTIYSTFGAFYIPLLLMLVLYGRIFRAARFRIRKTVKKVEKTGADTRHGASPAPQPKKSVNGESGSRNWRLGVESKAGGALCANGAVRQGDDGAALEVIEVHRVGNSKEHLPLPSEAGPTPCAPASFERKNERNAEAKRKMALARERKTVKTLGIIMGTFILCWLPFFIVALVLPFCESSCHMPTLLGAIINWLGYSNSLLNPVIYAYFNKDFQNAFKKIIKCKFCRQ
The assay is described as follows: NIMH PDSP radioligand competition binding, 5-HT1A.

The next assay addresses 5-HT1D (Homo sapiens, UniProt P28221). The assay is described as follows: NIMH PDSP radioligand competition binding, 5-HT1D.
For assay [2], the target named is norepinephrine transporter (NET) (Homo sapiens, UniProt P23975). The assay is described as follows: NIMH PDSP radioligand competition binding, NET.
The target in assay [3] is dopamine transporter (DAT) (Homo sapiens, UniProt Q01959). As to the kind of experiment: NIMH PDSP radioligand competition binding, DAT.
Setting [4] is: Binding Affinity (Ki, nM), DOR, [3H]DADLE, cloned human receptor.
Where [5] appears, read: Binding Affinity (Ki, nM), [3H]N-methylspiperone, cloned human receptor.
Where [6] appears, read: Binding Affinity (Ki, nM), PBR, [3H]PK11195, rat kidney, natively expressed.
The mark [7] stands for this setting: Binding Affinity (Ki, nM), [3H]tiotidine, cloned human receptor.

For `C=CCN(CC=C)CCc1c(C)[nH]c2ccc(OC)cc12` [5-MeO-2-Me-DALT, 5-methoxy-2-methyl-N,N-diallyltryptamine], the inhibition constant (Ki) is 1150 nM on 5-HT2A; 1820 nM at 5-HT5A; over 10000 nM on δ-opioid receptor (DOR) (setting [4]); over 10000 nM on D4 (setting [5]); 1200 nM at α1A; 847 nM on H1. Also, the Ki in [1] (setting [6]) was over 10000 nM; at 5-HT1E it was 1590 nM; at α2B it was 335 nM; on H2 (setting [7]) it was over 10000 nM; on 5-HT1A, 267 nM; at 5-HT1D, 900 nM. In addition, the Ki was over 10000 nM in [2] and 2410 nM in assay [3].
On to `C=CCN(CC=C)CCc1c[nH]c2c(CC)cccc12` [7-Et-DALT, 7-ethyl-N,N-diallyltryptamine], for which the Ki at 5-HT2A was 1520 nM; at 5-HT5A it was over 10000 nM; on δ-opioid receptor (DOR) (setting [4]) it was over 10000 nM; at D4 (setting [5]), over 10000 nM; at α1A it was over 10000 nM; on H1, 913 nM. The Ki was over 10000 nM in [1] (setting [6]); over 10000 nM at 5-HT1E; 489 nM at α2B; over 10000 nM at H2 (setting [7]); 1010 nM on 5-HT1A; 2690 nM on 5-HT1D. Besides, the figures for the Ki in assay [2] and in assay [3] were 1880 nM and 1730 nM, respectively.
Regarding `C=CCN(CC=C)CCc1c[nH]c2cccc(OC(C)=O)c12` [4-AcO-DALT, 4-acetoxy-N,N-diallyltryptamine], the Ki was 565 nM at 5-HT2A; 5840 nM at 5-HT5A; over 10000 nM on δ-opioid receptor (DOR) (setting [4]); over 10000 nM at D4 (setting [5]); over 10000 nM at α1A; 353 nM on H1. Besides, the Ki in assay [1] (setting [6]) was over 10000 nM; at 5-HT1E, 467 nM; on α2B it was 170 nM; on H2 (setting [7]), over 10000 nM; at 5-HT1A it was 383 nM; at 5-HT1D, 801 nM. Further, the Ki in assay [2] and in [3] was over 10000 nM in each case.
Turning to `C=CCN(CC=C)CCc1c(C)[nH]c2ccc(F)cc12` [5-F-2-Me-DALT, 5-fluoro-2-methyl-N,N-diallyltryptamine], the Ki on 5-HT2A is 655 nM; at 5-HT5A, 1920 nM; at δ-opioid receptor (DOR) (setting [4]), over 10000 nM; at D4 (setting [5]) it was over 10000 nM; on α1A, 1570 nM; at H1 it was 435 nM. Besides, the Ki is over 10000 nM in assay [1] (setting [6]); 1270 nM on 5-HT1E; 108 nM at α2B; over 10000 nM on H2 (setting [7]); 318 nM at 5-HT1A; 1590 nM at 5-HT1D. Also, the Ki in assay [2] is over 10000 nM; in assay [3], 2210 nM.
On to `C=CCN(CC=C)CCc1c[nH]c2cccc(O)c12` [4-HO-DALT, 4-hydroxy-N,N-diallyltryptamine], for which the inhibition constant (Ki) at 5-HT2A is 652 nM; at 5-HT5A, over 10000 nM; at δ-opioid receptor (DOR) (setting [4]), over 10000 nM; on D4 (setting [5]), over 10000 nM; on α1A it was over 10000 nM; on H1, over 10000 nM. In addition, the Ki is over 10000 nM in assay [1] (setting [6]); 238 nM at 5-HT1E; over 10000 nM at α2B; over 10000 nM at H2 (setting [7]); 319 nM on 5-HT1A; 693 nM on 5-HT1D. Moreover, the Ki in [2] and in [3] was over 10000 nM each time.
Take `C=CCN(CC=C)CCc1c(-c2ccccc2)[nH]c2ccccc12` [2-Ph-DALT, 2-phenyl-N,N-diallyltryptamine]: on 5-HT2A, the “5-HT2A binding affinity, fold higher than the affinity of DALT” value is 54 fold. Further, the Ki was 13 nM at 5-HT2A; 1670 nM at 5-HT5A; 6790 nM at δ-opioid receptor (DOR) (setting [4]); under 10000 nM at δ-opioid receptor (DOR) (Ki value, δ-opioid, bound stated); 1000 nM on D4 (setting [5]); under 10000 nM on D4 (Ki value, bound stated). Moreover, the Ki is 75 nM on α1A; 79 nM on H1; 1930 nM in assay [1] (setting [6]); under 10000 nM in [1] (Ki value, peripheral benzodiazepine receptors, bound stated); over 10000 nM at 5-HT1E; 78 nM on α2B. Further, the Ki at H2 (setting [7]) is 367 nM; at H2 (Ki value, bound stated), under 10000 nM; at 5-HT1A it was 402 nM; at 5-HT1D, 204 nM; in assay [2] it was 420 nM; in [3], 746 nM. The “5-HT2A binding affinity, fold higher than the affinity of any other DALT derivative” value at 5-HT2A (relative to any other DALT derivative) is “at least 10 fold”.

In general, Ki refers to a measure of affinity in units of concentration, obtained from inhibition or displacement. A lower Ki goes with higher affinity.
